Results reported in PubChem BioAssay (NCI).
“And” between values parts separate entries of the source, which are not always exact repeats. Equal entries are not always repeated.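 Five concentrations, 48 hours, 96-well plates. The concentration for 50% growth inhibition is given as GI50. TGI: concentration producing complete growth inhibition.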

How the values were obtained:
Experiment in all cases: NCI-60 cell line screen, 48 h
786-0 renal = test system: 786-0 renal
HOP-62 NSCLC = test system: HOP-62 NSCLC
HS 578T breast = test system: HS 578T breast
MALME-3M melanoma = test system: MALME-3M melanoma
SF-268 CNS = test system: SF-268 CNS
LOX IMVI melanoma = test system: LOX IMVI melanoma
NCI-H522 lung = test system: NCI-H522 lung
K-562 leukemia = test system: K-562 leukemia
SNB-19 CNS = test system: SNB-19 CNS
HCC-2998 colon = test system: HCC-2998 colon

Compound	TGI (786-0 renal)	TGI (HOP-62 NSCLC)	TGI (HS 578T breast)	TGI (MALME-3M melanoma)	TGI (SF-268 CNS)	TGI (LOX IMVI melanoma)	TGI (NCI-H522 lung)	TGI (K-562 leukemia) [µM]	TGI (SNB-19 CNS)	TGI (HCC-2998 colon)	GI50 (786-0 renal)	GI50 (HOP-62 NSCLC)	GI50 (HS 578T breast) [µM]	GI50 (MALME-3M melanoma)	GI50 (SF-268 CNS)	GI50 (LOX IMVI melanoma)	GI50 (NCI-H522 lung)	GI50 (K-562 leukemia) [µM]	GI50 (SNB-19 CNS)	GI50 (HCC-2998 colon)
CCCCCCCCC/C=C1\CCC(CN2CCOCC2)C1=O (configuration not stated)	9.69 µM	26.4 µM	5.47 µM	19 µM	18.2 µM	2.02 µM	6.64 µM	15.6	23.5 µM	18.8 µM										
CCCCCCCC(=O)SCC/C=C/[C@@H]1CC(=O)NCc2cc(ccn2)C2=N[C@@](C)(CS2)C(=O)N[C@@H](C(C)C)C(=O)O1	> 33.3 µM		0.203 µM	> 33.3 µM	> 9.59 µM	0.0666 µM	0.204 µM	> 33.3	> 33.3 µM	0.245 µM	0.0291 µM	0.00958 µM	0.00745	0.00864 µM	0.0387 µM	0.0172 µM	0.00721 µM	0.0248	0.109 µM	0.0256 µM
COc1cccc(-c2nc(-c3ccc(NC(=O)C(C)C)cc3)[nH]c2-c2ccnc(Br)c2)c1	> 100 µM	> 100 µM	3.93 µM	9.26 µM	> 100 µM	3.38 µM	> 100 µM	> 100	> 100 µM	6.01 µM	1.3 µM	3.44 µM	0.548	2.65 µM	4.07 µM	1.61 µM	2.8 µM	3.07	3.76 µM	2.03 µM
COc1cc(/C=C/c2cc(O)c(C(C)=O)c(O)c2)cc2c1O[C@]1(C)CC[C@@H](O)C(C)(C)[C@H]1C2	28.9 µM	48.4 µM	16.2 µM	44.2 µM	55.2 µM	13.3 µM	54 µM	> 100	> 100 µM	32.4 µM	2.91 µM	4.56 µM	1.87	7.35 µM	5.86 µM	2.85 µM	17.3 µM	3.64	7.46 µM	6.7 µM
Cn1cnc([N+](=O)[O-])c1S(=O)(=O)Oc1cccc2ccccc12	29.3 µM	5.45 µM	> 100 µM	4.98 µM	33.4 µM	5.73 µM	1.18 µM	8.63	> 100 µM	26.6 µM	14.4 µM	2.56 µM	26.5	1.83 µM	7.06 µM	2.04 µM	0.271 µM	1.6	29 µM	13.1 µM
CN(C)CCSC1=Nc2ccc(Cl)cc2C(c2ccccc2Cl)=NC1	31.5 µM and > 100 µM	32.1 µM and > 100 µM	35.7 µM and > 100 µM	28.3 µM and > 100 µM	28.2 µM and > 100 µM	30.9 µM and > 100 µM	21.6 µM and > 100 µM	> 100	31.1 µM and > 100 µM	30.3 µM and > 100 µM	14.3 µM and > 100 µM	15.8 µM and > 100 µM		13.5 µM and > 100 µM	13.9 µM and 99.4 µM	15.6 µM and 69.7 µM	6.68 µM and 52.2 µM		17.1 µM and > 100 µM	13.4 µM and > 100 µM
NC1(C(=O)OCc2ccccc2)CCCC1	42.8 µM	46.7 µM	79.7 µM	31.8 µM	31.4 µM	37.7 µM	42.6 µM	59.6	61.1 µM	76.7 µM										
O=C(CCc1nnc2sc(-c3ccc(Cl)cc3Cl)nn12)c1nc2ncccc2[nH]1	3.53 µM	6.77 µM	8.02 µM	4.1 µM	21.4 µM	3.08 µM	4.49 µM	> 100	16.7 µM	3.32 µM	1.81 µM	2.18 µM	2.71	1.85 µM	3.99 µM	1.69 µM	1.9 µM	2.44	3.53 µM	1.77 µM
COc1ccc(-c2nnc(COc3ccc(NC(=O)Nc4cc(C(F)(F)F)cc(C(F)(F)F)c4)cc3F)o2)cc1	4.7 µM	7.12 µM	5.55 µM	4.77 µM	9.94 µM	4.42 µM	5.35 µM	13.5	15.7 µM	5.92 µM	2.2 µM	2.69 µM	1.99	1.85 µM	3.04 µM	1.95 µM	2.15 µM	2.66	3.33 µM	2.42 µM
CSc1nc(NC2OCC(OC(C)=O)C(OC(C)=O)C2OC(C)=O)c(N=CC=Nc2c(NC3OCC(OC(C)=O)C(OC(C)=O)C3OC(C)=O)nc(SC)[nH]c2=O)c(=O)[nH]1 (configuration not stated)	> 100 µM	> 92.6 µM	> 100 µM	> 100 µM	> 100 µM	> 100 µM	> 83.8 µM	> 100	> 85.8 µM	> 100 µM										
COc1c(Cl)c(=O)oc2ccc(Cl)cc12	> 100 µM	> 100 µM	> 100 µM	> 100 µM	> 100 µM	> 100 µM	> 100 µM	> 100	> 100 µM	> 100 µM										
COC(=O)C1=C(C)NC(C)=C(C(=O)OCCCN2CCC(c3ccccc3)(c3ccccc3)CC2)C1c1cccc([N+](=O)[O-])c1 (configuration not stated)	2.99 µM	9.16 µM	4.57 µM	3.66 µM	3.47 µM	3.2 µM	4.72 µM	> 100	3.24 µM	4.58 µM										
